According to article PMC3133741 (Journal of medicinal chemistry, 2011):
Bridge positions count the residues as written; N and C are the ends. Square brackets hold non-standard residues; d marks the D form. Peptide text beside a SMILES is read from it. * marks the point of attachment. d(aThr) = C[C@@H](O)[C@@H](N)C(=O)O; Dhb = C/C=C(\N)C(=O)O; Propionyl = CCC(=O)*

Assays:
TRPV1 [1] = biological target: T1, TRPV1 (Homo sapiens, UniProt Q8NER1); assay: TRPV1 antagonism, structure-activity comparison; assay type: cell-based
human TRPV1 C578A mutant = human TRPV1 C578A mutant (Homo sapiens, UniProt Q8NER1, C578A); assay: Calcium flux assay in HEK-293 cells, human TRPV1 C578A mutant; details: 375 μM, pre-incubated (Figure 3)
TRPV1 [2] = biological target: T1, TRPV1; assay: Calcium flux assay in BEAS-2B cells stably overexpressing human TRPV1; assay type: cell-based; details: capsaicin 2.5 μM
[3] = system: mutant human TRPV1 variants; assay: Calcium flux assay in HEK-293 cells, three further; details: 375 μM, pre-incubated (Figure 3)
human TRPV1 F660A mutant = human TRPV1 F660A mutant (Homo sapiens, UniProt Q8NER1, F660A); assay: Calcium flux assay in HEK-293 cells, human TRPV1 F660A mutant; details: 375 μM, pre-incubated (Figure 3)
human TRPV1 C621A mutant = human TRPV1 C621A mutant (Homo sapiens, UniProt Q8NER1, C621A); assay: Calcium flux assay in HEK-293 cells, human TRPV1 C621A mutant; details: 375 μM, pre-incubated (Figure 3)
human wild type TRPV1 = human wild type TRPV1 (Homo sapiens, UniProt Q8NER1); assay: Calcium flux assay in HEK-293 cells transfected with wild-type human TRPV1; assay type: cell-based; details: for duration of abolished TRPV1 activity after removal of drug: mouse and human TRPV1 channels
mouse DRG neurons = assay: Fluorometric calcium flux assay in mouse DRG primary cell culture; assay type: cell-based; details: 125 μM final concentration; 25 mM KCl 5 min after application, then capsaicin
TRPV1 [4] = biological target: TRPV1 (Mus musculus, UniProt Q704Y3); assay: Long-term TRPV1 antagonism test in mouse DRG neurons; assay type: cell-based; details: 125 μM, 5 min incubation
Sequence of TRPV1 (Mus musculus, UniProt Q704Y3) (Q704Y3 whole entry): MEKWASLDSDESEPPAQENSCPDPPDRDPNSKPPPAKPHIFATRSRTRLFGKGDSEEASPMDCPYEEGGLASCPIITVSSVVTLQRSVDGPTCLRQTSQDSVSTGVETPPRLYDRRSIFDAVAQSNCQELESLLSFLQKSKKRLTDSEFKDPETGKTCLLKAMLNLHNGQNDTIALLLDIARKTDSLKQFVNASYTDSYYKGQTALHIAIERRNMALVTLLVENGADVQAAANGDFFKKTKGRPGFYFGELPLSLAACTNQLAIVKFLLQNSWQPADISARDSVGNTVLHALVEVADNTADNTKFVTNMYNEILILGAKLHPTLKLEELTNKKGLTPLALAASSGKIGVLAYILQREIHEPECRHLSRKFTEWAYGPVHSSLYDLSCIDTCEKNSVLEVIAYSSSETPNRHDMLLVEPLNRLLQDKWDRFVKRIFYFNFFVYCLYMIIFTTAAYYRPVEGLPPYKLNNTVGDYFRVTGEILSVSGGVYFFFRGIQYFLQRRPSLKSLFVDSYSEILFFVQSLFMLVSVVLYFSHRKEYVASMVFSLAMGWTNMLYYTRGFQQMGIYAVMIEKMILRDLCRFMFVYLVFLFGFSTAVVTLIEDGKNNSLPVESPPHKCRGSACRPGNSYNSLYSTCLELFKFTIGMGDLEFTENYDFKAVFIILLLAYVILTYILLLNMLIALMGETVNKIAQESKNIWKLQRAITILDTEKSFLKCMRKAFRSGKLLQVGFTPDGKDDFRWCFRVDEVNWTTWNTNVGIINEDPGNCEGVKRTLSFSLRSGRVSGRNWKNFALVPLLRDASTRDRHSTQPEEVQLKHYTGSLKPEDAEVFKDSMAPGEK

T1 sequence (Q8NER1 whole entry): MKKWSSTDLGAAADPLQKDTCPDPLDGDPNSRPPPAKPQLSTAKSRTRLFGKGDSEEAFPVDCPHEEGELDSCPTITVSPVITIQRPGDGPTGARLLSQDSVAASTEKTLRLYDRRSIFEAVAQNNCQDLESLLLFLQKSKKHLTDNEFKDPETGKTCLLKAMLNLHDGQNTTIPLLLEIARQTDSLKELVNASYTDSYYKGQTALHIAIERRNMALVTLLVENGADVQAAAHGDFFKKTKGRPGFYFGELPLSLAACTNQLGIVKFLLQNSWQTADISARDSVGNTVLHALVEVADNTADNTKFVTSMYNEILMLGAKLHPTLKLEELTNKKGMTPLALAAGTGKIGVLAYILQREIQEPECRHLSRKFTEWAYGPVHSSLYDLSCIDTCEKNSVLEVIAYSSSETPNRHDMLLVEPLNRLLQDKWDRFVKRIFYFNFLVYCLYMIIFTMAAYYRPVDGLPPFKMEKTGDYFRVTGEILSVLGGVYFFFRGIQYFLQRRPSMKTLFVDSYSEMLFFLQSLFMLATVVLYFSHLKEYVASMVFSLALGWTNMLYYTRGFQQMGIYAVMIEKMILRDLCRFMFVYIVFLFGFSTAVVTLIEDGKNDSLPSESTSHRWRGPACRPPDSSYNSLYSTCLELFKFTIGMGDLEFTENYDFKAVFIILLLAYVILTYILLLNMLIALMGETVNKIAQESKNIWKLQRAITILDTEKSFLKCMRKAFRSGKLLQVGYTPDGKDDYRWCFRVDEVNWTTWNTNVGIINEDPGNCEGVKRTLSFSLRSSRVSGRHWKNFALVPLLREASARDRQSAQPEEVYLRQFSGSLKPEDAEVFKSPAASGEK
Sequence of human wild type TRPV1 (Q8NER1 whole entry): as above
Sequence of human TRPV1 C621A mutant (Q8NER1 whole entry C621A): as the sequence (Q8NER1 whole entry) above, with C621A counted along it
Sequence of human TRPV1 C578A mutant (Q8NER1 whole entry C578A): as the sequence (Q8NER1 whole entry) above, with C578A counted along it
Sequence of human TRPV1 F660A mutant (Q8NER1 whole entry F660A): as the sequence (Q8NER1 whole entry) above, with F660A counted along it

C/C=C1\NC(=O)[C@H](C)NC(=O)[C@H](C(C)C)NC(=O)[C@H](NC(=O)[C@H](Cc2ccccc2)NC(=O)[C@@H](CC(C)C)NC(=O)[C@@H](Cc2ccccc2)NC(=O)CC)[C@@H](C)OC1=O [Compound 1, A-3302-B] (Propionyl-[dF][dL]F[d(aThr)]VA[Dhb]; ester 4-C) was tested, and the “inhibitory activity (in words)” value (TRPV1 [1]) was “exhibited inhibitory activity”.
C/C=C1\NC(=O)[C@H](C)NC(=O)[C@H](C(C)C)NC(=O)[C@H](NC(=O)[C@H](Cc2ccccc2)NC(=O)[C@@H](CC(C)C)NC(=O)[C@@H](Cc2ccccc2)NC(C)=O)[C@@H](C)OC1=O [Compound 2, A-3302-A] (Ac-[dF][dL]F[d(aThr)]VA[Dhb]; ester 4-C) was tested, and the “TRPV1 antagonism in C578A mutant” value (human TRPV1 C578A mutant) was “complete loss of TRPV1 antagonism”, the “antagonism of capsaicin in direct competition experiments” value (TRPV1 [2]) was “antagonize the action of capsaicin on TRPV1” and the “inhibition of three other TRPV1 mutants” value [3] was “in a manner similar to wild type”. For the same compound, the “inhibitory activity (in words)” value (TRPV1 [1]) was “exhibited inhibitory activity”, the “TRPV1 antagonism in F660A mutant” value (human TRPV1 F660A mutant) was “complete loss of TRPV1 antagonism” and the “TRPV1 antagonism in C621A mutant” value (human TRPV1 C621A mutant) was “complete loss of TRPV1 antagonism”. The “duration of abolished TRPV1 activity after removal of drug” value (human wild type TRPV1) was greater than 1 h.
CC(=O)N[C@@H](Cc1ccccc1)C(=O)N[C@H](CC(C)C)C(=O)N[C@@H](Cc1ccccc1)C(=O)N[C@@H](C(=O)N[C@H](C(=O)N[C@@H](C)C(=O)O)C(C)C)[C@@H](C)O [Compound 6, Nobilamide C] (Ac-F[dL]F[d(aThr)]VA-OH) was tested, and the “inhibitory activity (in words)” value (TRPV1 [1]) was “Neither 6 nor 1a exhibited detectable activity”.
In the case of C/C=C(\NC(=O)[C@H](C)NC(=O)[C@@H](NC(=O)[C@H](NC(=O)[C@H](Cc1ccccc1)NC(=O)[C@@H](CC(C)C)NC(=O)[C@@H](Cc1ccccc1)NC(C)=O)[C@@H](C)O)C(C)C)C(=O)O [Compound 4, Nobilamide A] (Ac-[dF][dL]F[d(aThr)]VA[Dhb]-OH), the “response to capsaicin after application of pure compound” value (mouse DRG neurons) is reported as “complete loss of response to capsaicin”, the “recovery of capsaicin response” value (TRPV1 [4]; three-hour recovery period) is reported as “recovery was observed after three hours” and the “capsaicin response after incubation with compound” value (TRPV1 [4]; capsaicin 100 or 200 nM) is reported as “initially abolished”. The “inhibitory activity (in words)” value (TRPV1 [1]) was “exhibited inhibitory activity”.
In the case of C/C=C(\NC(=O)[C@H](C)NC(=O)[C@@H](NC(=O)[C@H](NC(=O)[C@H](Cc1ccccc1)NC(=O)[C@@H](CC(C)C)NC(=O)[C@@H](Cc1ccccc1)NC(=O)CC)[C@@H](C)O)C(C)C)C(=O)O [Compound 5, Nobilamide B] (Propionyl-[dF][dL]F[d(aThr)]VA[Dhb]-OH), the “TRPV1 antagonism in C578A mutant” value (human TRPV1 C578A mutant) is reported as “complete loss of TRPV1 antagonism”, the “antagonism of capsaicin in direct competition experiments” value (TRPV1 [2]) is reported as “antagonize the action of capsaicin on TRPV1” and the “inhibition of three other TRPV1 mutants” value [3] is reported as “in a manner similar to wild type”. For the same compound, the “inhibitory activity (in words)” value (TRPV1 [1]) was “exhibited inhibitory activity”, the “TRPV1 antagonism in F660A mutant” value (human TRPV1 F660A mutant) was “complete loss of TRPV1 antagonism” and the “TRPV1 antagonism in C621A mutant” value (human TRPV1 C621A mutant) was “complete loss of TRPV1 antagonism”. For the same compound, the “potency with pre-incubation versus co-application with capsaicin” value (human wild type TRPV1; 375 μM compound, capsaicin 25 μM (Figure 1)) was “greatly increased with pre-incubation”, the “stability of inhibitory activity to washes” value (human wild type TRPV1; 375 μM, 1 h timecourse with washes (Figure 2)) was “stable through four washes taking place over a 60-min period” and the rebound of activity (human wild type TRPV1; after washes, human cells) was “slight rebound of activity was noticed after one hour”. The “duration of abolished TRPV1 activity after removal of drug” value (human wild type TRPV1) was greater than 1 h.
In the case of C/C=C1\NC(=O)[C@H](C)NC(=O)[C@H](C(C)C)NC(=O)[C@H](NC(=O)[C@H](Cc2ccc(O)cc2)NC(=O)[C@@H](CC(C)C)NC(=O)[C@H](Cc2ccccc2)NC(C)=O)[C@@H](C)OC1=O [Compound 8, Nobilamide E] (Ac-F[dL]Y[d(aThr)]VA[Dhb]; ester 4-C), the “inhibitory activity (in words)” value (TRPV1 [1]) is reported as “inactive”.
